Read-outs that look alike come from different tables or passages of the source.
Assays:
Format in all cases: cell-based
[1] = system: cell lines of human non-small cell lung cancer (H522); assay: In vitro antineoplastic activity, MTT experiment, H522; conditions: H522 cells, 48 hours, highest concentration tested 31.6 μM (>30: inhibition rate <50%)
Experimental: (§1) MTT, RPM1640 culture medium, fetal bovine serum, 96-well plate, CO2 thermostatic incubator, American BIO-RAD680 microplate reader, cell lines of human non-small cell lung cancer (H522), and cell lines of human brain glioma (U87) were all obtained commercially.
(§2) (1) Cell inoculation: A single cell suspension was prepared with culture media supplemented with 10% fetal bovine serum, plated into a 96-well plate with 5000 cells per well, each well having a volume of 100 μL, and cultured overnight.
(§3) (2) Preparation of compound solutions: a DMSO stock solution of a compound was diluted on a sterile bench with a culture medium into 5 concentrations to be tested, wherein a double dilution was employed between two adjacent concentrations.
(§4) (3) The compound solutions of various concentrations were added into the 96-well plate cultured overnight, with 100 μL added per well, triplicated wells for each concentration. Since the peripheral wells can have edge effect and are susceptible to contamination, no cells or compounds were added thereto; instead, 100 μL culture solution was added as a blank. Additionally, 100% wells were set to contain the cells and 100 μL culture media without any compound. The plates were incubated in a thermostatic incubator at 37° C. for 48 hours.
(§5) (4) Staining: 10 μL MTT solution (5 mg/mL, prepared with PBS) was added into the 96-well plate for staining. After incubation for 4 hours, centrifugation was performed at 2500 rpm for 10 minutes. Then, a multiple pipette was used to suck the culture solution out of the wells carefully without sucking out the cells while the pipette tip faced downward. 150 μL DMSO was added and shaken on a shaker for 5-10 minutes. Crystals were allowed to dissolve fully, and an OD value for each well was measured using the microplate reader at 570 nm. The inhibition rate was calculated as follows: Inhibition rate (%)=(average OD value of 100% wells−average OD value of compound wells)/(average OD value of 100% wells−average OD value of blank wells)×100%

human glioma U87 cells = assay: Tumor cell vacuolization (methuosis) scoring, U87; design: key to Vacuolation Score: 5 scores were given when obvious vacuolization occurred at 10 nM; 4 scores at 31.6 nM; 3 scores at 100 nM; 2 scores at 316 nM; 1 score at 1000 nM; 0 score was given if no vacuolation occurred at any concentration; conditions: U87 cells; for Vacuolation Score: 0.01-3.160 μM, 96 hours, microscope
Experimental: FIG. 2. Vacuolization of tumor cells. 100 microliter culture medium (RPMI1640, 2 mmol glutamine, 10% fetal bovine serum) containing 10^3 human colon adenocarcinoma cells (HCT15) or human brain glioma cells (U87) and a solvent DMSO control or 100 nM #40 compound (L16) was plated into a 96-well cell culture plate, and cell morphological image was taken under a phase contrast microscope after cultured at 5% CO2 and 37° C. for 96 hours.
Some cells gradually became round and eventually bursted. These changes are consistent with the features of cell death by methuosis (FIG. 2).
In order to compare the ability of different compounds to cause cell vacuolization, 100 μL culture media (RPMI1640, 2 mmol glutamine, 10% fetal bovine serum) comprising 10^3 human glioma U87 cells and final concentrations of 0.01, 0.0316, 0.1, 0.316, 1.0, 3.160 μM respectively of the compounds to be tested were inoculated into a 96-well culture plate. After cultured at 5% CO2 and 37° C. for 96 hours, cell morphology was observed under a high-magnification microscope, and the ability of the compounds to cause cell vacuolization was scored. 5 scores were given when obvious vacuolization occurred at 10 nM, 4 scores at 31.6 nM, 3 scores at 100 nM, 2 scores at 316 nM, 1 score at 1000 nM, and 0 score was given if no vacuolation occurred at any concentration.

[2] = system: cell lines of human brain glioma (U87); assay: In vitro antineoplastic activity, MTT experiment, U87
Experimental: as §1, §2, §3, §4, §5

[3] = U87 cells, MTT, 48 hours, highest concentration tested 31.6 μM, read-out: IC50(μM) U87
[4] = ability to inhibit cell proliferation, U87 (FIG. 3), unit inferred, read-out: IC50

O=C(Nc1ccc(Cl)cc1)Nc1ccc(Nc2nc(/C=C/c3ccc(Cl)cc3)nc(N3CCOCC3)n2)cc1 [L10, (E)-1-(4-chlorophenyl)-3-(4-(4-(morpholin-1-yl)-6-(4-chlorostyrenyl)-1,3,5-triazinyl-2-amino)phenyl)urea]
IC50 [1]: 2.18 ± 0.23 µM
Vacuolation Score (human glioma U87 cells): 3 (3 scores at 100 nM)
IC50 [2, 3]: 4.92 ± 0.16 µM
IC50 [2, 4]: 4.92 µM

CCN(CC)CCNC(=O)c1ccc(NC(=O)Nc2ccc(Nc3nc(/C=C/c4ccccc4)nc(N4CCOCC4)n3)cc2)cc1 [L33, (E)-N-(2-(diethylamino)ethyl)-4-(3-(4-(4-(morpholin-1-yl)-6-styrenyl-1,3,5-triazinyl-2-amino)phenyl)urea)benzamide]
IC50 [1]: 4.31 ± 0.09 µM
Vacuolation Score (human glioma U87 cells): 3.5
IC50 [2, 3]: 1.3 ± 0.05 µM
IC50 [2, 4]: 1.9 µM

O=C(Nc1ccc(F)cc1)Nc1ccc(Nc2nc(/C=C/c3cccc([N+](=O)[O-])c3)nc(N3CCOCC3)n2)cc1 [L17, (E)-1-(4-fluorophenyl)-3-(4-(4-(morpholin-1-yl)-6-(3-nitrostyrenyl)-1,3,5-triazinyl-2-amino)phenyl)urea]
IC50 [1]: > 30 µM
Vacuolation Score (human glioma U87 cells): 3.5
IC50 [2, 3]: 1.11 ± 0.1 µM
IC50 [2, 4]: 1.19 µM

O=C(Nc1ccc(Cl)cc1)Nc1ccc(Nc2nc(/C=C/c3cccc(Cl)c3)nc(N3CCOCC3)n2)cc1 [L6, (E)-1-(4-chlorophenyl)-3-(4-(4-(morpholin-1-yl)-6-(3-chlorostyrenyl)-1,3,5-triazinyl-2-amino)phenyl)urea]
IC50 [1]: 5.25 ± 0.45 µM
Vacuolation Score (human glioma U87 cells): 4 (4 scores at 31.6 nM)
IC50 [2, 3]: 3.63 ± 0.11 µM
IC50 [2, 4]: 3.63 µM

O=C(Nc1ccc(Cl)cc1)Nc1cccc(Nc2nc(/C=C/c3cccc(Cl)c3)nc(N3CCOCC3)n2)c1 [L25, (E)-1-(4-chlorophenyl)-3-(3-(4-(morpholin-1-yl)-6-(3-chlorostyrenyl)-1,3,5-triazinyl-2-amino)phenyl)urea]
IC50 [1]: 2.53 ± 0.28 µM
Vacuolation Score (human glioma U87 cells): 0
IC50 [2, 3]: 2.2 ± 0.21 µM
IC50 [2, 4]: 2.2 µM

O=C(Nc1ccc(F)cc1)Nc1ccc(Nc2nc(/C=C/c3cccc(Cl)c3)nc(N3CCOCC3)n2)cc1 [L7, (E)-1-(4-fluorophenyl)-3-(4-(4-(morpholin-1-yl)-6-(3-chlorostyrenyl)-1,3,5-triazinyl-2-amino)phenyl)urea]
IC50 [1]: 1.42 ± 0.12 µM
Vacuolation Score (human glioma U87 cells): 4 (4 scores at 31.6 nM)
IC50 [2, 3]: 1.33 ± 0.13 µM
IC50 [2, 4]: 1.32 µM

O=C(Nc1ccc(Cl)cc1)Nc1ccc(Nc2nc(/C=C/c3ccccc3)nc(N3CCOCC3)n2)cc1 [L1, (E)-1-(4-chlorophenyl)-3-(4-(4-(morpholin-1-yl)-6-styrenyl-1,3,5-triazinyl-2-amino)phenyl)urea]
IC50 [1]: 3.26 ± 0.34 µM
Vacuolation Score (human glioma U87 cells): 5 (5 scores were given when obvious vacuolization occurred at 10 nM)
ability to cause cell vacuolization (in words) (human glioma U87 cells; among the compounds tested): strongest ability to cause cell vacuolization
IC50 [2, 3]: 4.79 ± 0.55 µM
IC50 [2, 4]: 3.53 µM

O=C(Nc1ccc(Cl)cc1)Nc1ccc(Nc2nc(/C=C/c3ccccc3)nc(N3CC(O)C3)n2)cc1 [L5, (E)-1-(4-chlorophenyl)-3-(4-(4-(3-hydroxyazetidin-1-yl)-6-styrenyl-1,3,5-triazinyl-2-amino)phenyl)urea]
IC50 [1]: 5.03 ± 0.89 µM
Vacuolation Score (human glioma U87 cells): 0
IC50 [2, 3]: 3.32 ± 0.45 µM
IC50 [2, 4]: 3.28 µM

O=C(Nc1ccc(Nc2nc(/C=C/c3ccccc3)nc(N3CCOCC3)n2)cc1)Nc1ccc(C(=O)NCCN2CCOCC2)cc1 [L37, (E)-N-(2-(morpholin-1-yl)ethyl)-4-(3-(4-(4-(morpholin-1-yl)-6-styrenyl-1,3,5-triazinyl-2-amino)phenyl)urea)benzamide]
IC50 [1]: 5.19 ± 1.48 µM
Vacuolation Score (human glioma U87 cells): 3.5
IC50 [2, 3]: 0.55 ± 0.05 µM
IC50 [2, 4]: 0.82 µM

CN1CCN(c2nc(/C=C/c3cccc(Cl)c3)nc(Nc3ccc(NC(=O)Nc4ccc(F)cc4)cc3)n2)CC1 [L9, (E)-1-(4-fluorophenyl)-3-(4-(4-(4-methylpiperazin-1-yl)-6-(3-chlorostyrenyl)-1,3,5-triazinyl-2-amino)phenyl)urea]
IC50 [1]: 3.88 ± 0.65 µM
Vacuolation Score (human glioma U87 cells): 2 (2 scores at 316 nM)
IC50 [2, 3]: 1.47 ± 0.12 µM
IC50 [2, 4]: 1.47 µM

CN(C)c1nc(/C=C/c2cccc([N+](=O)[O-])c2)nc(Nc2ccc(NC(=O)Nc3ccc(Cl)cc3)cc2)n1 [L20, (E)-1-(4-chlorophenyl)-3-(4-(4-dimethylamino-6-(3-nitrostyrenyl)-1,3,5-triazinyl-2-amino)phenyl)urea]
IC50 [1]: 5.55 ± 0.4 µM
Vacuolation Score (human glioma U87 cells): 0
IC50 [2, 3]: 5.12 ± 0.28 µM
IC50 [2, 4]: 5.12 µM

O=C(Nc1ccc(Nc2nc(/C=C/c3ccccc3)nc(N3CCOCC3)n2)cc1)Nc1ccc(C(=O)O)cc1 [compound 14, (E)-1-(4-carboxyphenyl)-3-(4-(4-(morpholin-1-yl)-6-styrenyl-1,3,5-triazinyl-2-amino)phenyl)urea]
Vacuolation Score (human glioma U87 cells): 1.5

CN(C)CCNC(=O)c1ccc(NC(=O)Nc2ccc(Nc3nc(/C=C/c4ccccc4)nc(N4CCOCC4)n3)cc2)cc1 [L32, (E)-N-(2-(dimethylamino)ethyl)-4-(3-(4-(4-(morpholin-1-yl)-6-styrenyl-1,3,5-triazinyl-2-amino)phenyl)urea)benzamide]
IC50 [1]: 5.03 ± 0.4 µM
Vacuolation Score (human glioma U87 cells): 4.5
IC50 [2, 3]: 2.48 ± 0.44 µM
IC50 [2, 4]: 2.8 µM

O=C(Nc1ccc(Cl)cc1)Nc1cccc(Nc2nc(/C=C/c3ccccc3)nc(N3CCOCC3)n2)c1 [L23, (E)-1-(4-chlorophenyl)-3-(3-(4-(morpholin-1-yl)-6-styrenyl-1,3,5-triazinyl-2-amino)phenyl)urea]
IC50 [1]: 1.44 ± 0.1 µM
Vacuolation Score (human glioma U87 cells): 0
IC50 [2, 3]: 1 ± 0.06 µM
IC50 [2, 4]: 1 µM

CN1CCN(c2nc(/C=C/c3ccc(Cl)cc3)nc(Nc3ccc(NC(=O)Nc4ccc(Cl)cc4)cc3)n2)CC1 [L13, (E)-1-(4-chlorophenyl)-3-(4-(4-(4-methylpiperazin-1-yl)-6-(4-chlorostyrenyl)-1,3,5-triazinyl-2-amino)phenyl)urea]
IC50 [1]: 0.87 ± 0.08 µM
Vacuolation Score (human glioma U87 cells): 0
IC50 [2, 3]: 2.04 ± 0.09 µM
IC50 [2, 4]: 2.04 µM

O=C(Nc1ccc(Cl)cc1)Nc1ccc(Nc2nc(/C=C/c3cccc([N+](=O)[O-])c3)nc(N3CCCC3)n2)cc1 [L21, (E)-1-(4-chlorophenyl)-3-(4-(4-(pyrrolidin-1-yl)-6-(3-nitrostyrenyl)-1,3,5-triazinyl-2-amino)phenyl)urea]
IC50 [1]: 7.3 ± 0.75 µM
Vacuolation Score (human glioma U87 cells): 0
IC50 [2, 3]: 4.47 ± 0.39 µM
IC50 [2, 4]: 4.47 µM

CN1CCN(C(=O)c2ccc(NC(=O)Nc3ccc(Nc4nc(/C=C/c5ccccc5)nc(N5CCOCC5)n4)cc3)cc2)CC1 [L31, (E)-1-(4-((4-methylpiperazin-1-yl)formyl)phenyl)-3-(4-(4-(morpholin-1-yl)-6-styrenyl-1,3,5-triazinyl-2-amino)phenyl)urea]
IC50 [1]: 1.05 ± 0.04 µM
Vacuolation Score (human glioma U87 cells): 2.5
IC50 [2, 3]: 0.23 ± 0.01 µM
IC50 [2, 4]: 0.22 µM

O=C(Nc1ccc(F)cc1)Nc1ccc(Nc2nc(/C=C/c3ccc(Cl)cc3)nc(N3CCOCC3)n2)cc1 [L11, (E)-1-(4-fluorophenyl)-3-(4-(4-(morpholin-1-yl)-6-(4-chlorostyrenyl)-1,3,5-triazinyl-2-amino)phenyl)urea]
IC50 [1]: 0.3 ± 0.03 µM
Vacuolation Score (human glioma U87 cells): 2 (2 scores at 316 nM)
IC50 [2, 3]: 2.5 ± 0.08 µM
IC50 [2, 4]: 2.5 µM

Cl.O=C(Nc1ccc(Cl)cc1)Nc1ccc(Nc2nc(/C=C/c3cccc([N+](=O)[O-])c3)nc(N3CCOCC3)n2)cc1 [compound 68]
Vacuolation Score (human glioma U87 cells): 4 (4 scores at 31.6 nM)
IC50 ([2]; Homo sapiens, ability to inhibit cell proliferation, U87 (FIG. 3), unit inferred, read-out: IC50): 3.28 µM
